The results in this text go back to PubChem BioAssay (NCI).

Some test systems named below: SW-620 colon; HCC-2998 colon; SF-268 CNS; OVCAR-8 ovarian; KM12 colon; NCI-H23 lung; HOP-62 NSCLC; SK-MEL-5 melanoma; COLO 205 colon; IGROV1 ovarian; SF-539 CNS; M14 melanoma; HL-60(TB) leukemia; HCT-116 colon; LOX IMVI melanoma; 786-0 renal; SNB-19 CNS; MDA-N; UO-31 renal.
Common to all, as to assay: inhibition of tumour cell growth, NCI panel, 48 h

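Where inhibition never reached the appropriate level, the endpoint shown equals the highest concentration tested. Otherwise, values were interpolated linearly from a five-concentration, 48-hour dose response in 96-well plates. TGI marks complete inhibition of growth.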

As for `CC1(C)N/C(=C\[N+](=O)[O-])C(C)(C)N1O`, the TGI in the test on SW-620 colon, in the test with HCC-2998 colon, in the test with SF-268 CNS, in the test on OVCAR-8 ovarian, with KM12 colon and with NCI-H23 lung was more than 10 µM in each case. The TGI in the test with HOP-62 NSCLC, with SK-MEL-5 melanoma, in the test on COLO 205 colon, in the test with IGROV1 ovarian, in the test on SF-539 CNS and in the test with M14 melanoma was more than 10 µM each time. Also, the TGI with HL-60(TB) leukemia, in the test with HCT-116 colon, with LOX IMVI melanoma, in the test on 786-0 renal, with SNB-19 CNS and with MDA-N was more than 10 µM each time.

For `O=C1CS(=O)(=O)C(c2cccc(Oc3ccccc3)c2)N1c1ccc(Cl)cc1` (stereo unspecified), the TGI was more than 100 µM in the test on SW-620 colon; 20.8 µM in the test with HCC-2998 colon; more than 100 µM in the test with SF-268 CNS; 47.8 µM in the test with OVCAR-8 ovarian; more than 100 µM with KM12 colon; more than 100 µM in the test on NCI-H23 lung. Moreover, the TGI in the test on HOP-62 NSCLC is more than 100 µM; in the test on SK-MEL-5 melanoma it was 26.3 µM; in the test with COLO 205 colon, 35.5 µM; with IGROV1 ovarian it was 39 µM; in the test on SF-539 CNS it was 39.9 µM; in the test with M14 melanoma, 76.2 µM. The TGI in the test on UO-31 renal was more than 100 µM; in the test on HL-60(TB) leukemia it was more than 100 µM; in the test with HCT-116 colon, 22.6 µM; in the test on LOX IMVI melanoma it was 29.1 µM; in the test with 786-0 renal, 36.5 µM; in the test on SNB-19 CNS, more than 100 µM. This compound also gave a TGI in the test on MDA-N of 53 µM.

On to `Nc1ccccc1CCN1CCN(CCCc2ccccc2)CC1`, for which the TGI was more than 100 µM with SW-620 colon; 39 µM in the test with HCC-2998 colon; more than 100 µM with SF-268 CNS; more than 100 µM in the test with OVCAR-8 ovarian; more than 100 µM in the test on KM12 colon; more than 100 µM in the test with NCI-H23 lung. Besides, the TGI in the test on HOP-62 NSCLC is more than 100 µM; with SK-MEL-5 melanoma, 32.6 µM; in the test with COLO 205 colon, 55 µM; in the test on IGROV1 ovarian it was more than 100 µM; with SF-539 CNS, more than 100 µM; in the test on M14 melanoma, 35.4 µM. In addition, the TGI in the test with UO-31 renal, in the test on HL-60(TB) leukemia, in the test on HCT-116 colon, with LOX IMVI melanoma, in the test with 786-0 renal and in the test on SNB-19 CNS was more than 100 µM throughout. In addition, the TGI with MDA-N was more than 100 µM.

As to `COC(=O)[C@@H]1C=C[C@H](OC2OC(COC(C)=O)C(OC(C)=O)C(OC(C)=O)C2OC(C)=O)n2c(=O)n(-c3ccccc3)c(=O)n21` (stereo partly specified), the TGI with SW-620 colon stood at 3.41 µM; with HCC-2998 colon it was 21.9 µM; in the test with SF-268 CNS, 8.17 µM; with OVCAR-8 ovarian it was 8.03 µM; in the test on KM12 colon, 19.6 µM; with NCI-H23 lung, 14 µM. The TGI in the test with HOP-62 NSCLC is 28.1 µM; in the test on SK-MEL-5 melanoma it was 7 µM; with COLO 205 colon, 3.38 µM; with IGROV1 ovarian, 12 µM; in the test with SF-539 CNS, 8.21 µM; with M14 melanoma it was 5.77 µM. Besides, the TGI with UO-31 renal turned out to be 5.25 µM; with HL-60(TB) leukemia it was 4.39 µM; in the test with HCT-116 colon it was 3.82 µM; with LOX IMVI melanoma, 3.09 µM; in the test on 786-0 renal it was 2.83 µM; in the test on SNB-19 CNS, 25.8 µM. In addition, in the test on MDA-N, the TGI was determined as 7.41 µM.

In the case of `CCCCC1(NN=C2CCCCC2)C(=O)N(c2ccccc2)N(c2ccccc2)C1=O`, the TGI in the test with SW-620 colon, with HCC-2998 colon, with SF-268 CNS, in the test on OVCAR-8 ovarian, in the test with KM12 colon and in the test on NCI-H23 lung was more than 100 µM in each case. The TGI in the test on HOP-62 NSCLC, in the test with SK-MEL-5 melanoma, in the test on COLO 205 colon, in the test with IGROV1 ovarian, in the test on SF-539 CNS and in the test with M14 melanoma was more than 100 µM in each case. In addition, the TGI in the test with UO-31 renal is more than 100 µM; in the test on HL-60(TB) leukemia, 38.4 µM; in the test with HCT-116 colon, more than 100 µM; with 786-0 renal, more than 100 µM; with SNB-19 CNS, more than 100 µM; in the test on MDA-N, more than 100 µM.

As to `COc1ccc(/C=C2\N=C(N3CCCCC3)NC2=O)cc1`, the TGI in the test on SW-620 colon, in the test with HCC-2998 colon, in the test with SF-268 CNS, in the test on OVCAR-8 ovarian, in the test on KM12 colon and in the test on NCI-H23 lung was more than 100 µM each time. Besides, the TGI in the test with HOP-62 NSCLC, with COLO 205 colon, in the test on IGROV1 ovarian, in the test on SF-539 CNS, in the test on M14 melanoma and with UO-31 renal was more than 100 µM each time. Besides, the TGI with HL-60(TB) leukemia, with HCT-116 colon, with LOX IMVI melanoma, in the test on 786-0 renal, with SNB-19 CNS and in the test on MDA-N was more than 100 µM throughout.

Regarding `Nn1c(C23CC4CC(CC(C4)C2)C3)n[nH]c1=S`, the TGI in the test with SW-620 colon, with HCC-2998 colon, in the test on SF-268 CNS, in the test with KM12 colon, in the test with NCI-H23 lung and in the test with HOP-62 NSCLC was more than 100 µM in each case. Moreover, the TGI with SK-MEL-5 melanoma, with COLO 205 colon, with IGROV1 ovarian, in the test with SF-539 CNS, in the test on M14 melanoma and in the test with UO-31 renal was more than 100 µM each time. The TGI with HL-60(TB) leukemia, in the test on HCT-116 colon, with LOX IMVI melanoma, in the test with 786-0 renal, in the test on SNB-19 CNS and in the test with MDA-N was more than 100 µM each time.

Consider `CC(=O)SCCC(NC(=S)Nc1ccccc1)P(=O)(Oc1ccccc1)Oc1ccccc1` (stereo unspecified), for which the TGI in the test on SW-620 colon, in the test with HCC-2998 colon, in the test on SF-268 CNS, in the test on OVCAR-8 ovarian, in the test on KM12 colon and in the test with NCI-H23 lung was more than 100 µM in each case. In addition, the TGI in the test on HOP-62 NSCLC, in the test with COLO 205 colon, in the test with IGROV1 ovarian, in the test on SF-539 CNS, with M14 melanoma and with UO-31 renal was more than 100 µM throughout. In addition, the TGI with HL-60(TB) leukemia, with HCT-116 colon, in the test on LOX IMVI melanoma, with 786-0 renal, in the test on SNB-19 CNS and with MDA-N was more than 100 µM throughout.

Regarding `CCOC(=O)c1sc(=S)n(-c2ccc(Cl)cc2)c1-n1cc(-c2ccccc2)c(C#N)c1N`, the TGI in the test with SW-620 colon is more than 100 µM; in the test with HCC-2998 colon, more than 100 µM; in the test with SF-268 CNS, 8.6 µM; with OVCAR-8 ovarian it was 27.1 µM; in the test on KM12 colon, more than 100 µM; with NCI-H23 lung it was 70.6 µM. In addition, the TGI in the test on HOP-62 NSCLC is 14.7 µM; in the test on SK-MEL-5 melanoma it was 84.5 µM; in the test on COLO 205 colon it was more than 100 µM; in the test on IGROV1 ovarian, 40.5 µM; with SF-539 CNS, 50.6 µM; with M14 melanoma, more than 100 µM. Also, the TGI in the test with HL-60(TB) leukemia is more than 100 µM; in the test on HCT-116 colon it was more than 100 µM; with LOX IMVI melanoma, more than 100 µM; with 786-0 renal, 22.9 µM; in the test with SNB-19 CNS, 41.6 µM; in the test with MDA-N it was more than 100 µM.

On to `CC(=O)OCC1OC(N2C(C)=C(C(C)=O)C(c3ccc(Cl)cc3)C(C#N)=C2S)C(OC(C)=O)C(OC(C)=O)C1OC(C)=O` (stereo unspecified), for which the TGI in the test with SW-620 colon, with HCC-2998 colon, in the test with SF-268 CNS, in the test on OVCAR-8 ovarian, in the test on KM12 colon and in the test on HOP-62 NSCLC was more than 100 µM each time. Further, the TGI in the test on SK-MEL-5 melanoma was more than 100 µM; with COLO 205 colon, 35.6 µM; with IGROV1 ovarian, more than 100 µM; in the test with SF-539 CNS, more than 100 µM; in the test on M14 melanoma, more than 100 µM; with UO-31 renal, 88.8 µM. Further, the TGI with HL-60(TB) leukemia, in the test on HCT-116 colon, with LOX IMVI melanoma, with 786-0 renal, with SNB-19 CNS and with MDA-N was more than 100 µM in each case.

As to `CCCCCCCC(CC(=O)NC(CO)C(=O)NC(CO)CC(C)C)OC(=O)CC(CCCCCCC)OC(=O)CC(CCCCCCC)OC1OC(C)C(O)C(OC2OC(C)C(OC(C)=O)C(O)C2O)C1O` (stereo unspecified), the TGI is 23.3 µM with SW-620 colon; 17.2 µM with HCC-2998 colon; 23.3 µM in the test on SF-268 CNS; 23.3 µM with OVCAR-8 ovarian; 14.3 µM in the test on KM12 colon; 22 µM with NCI-H23 lung. Moreover, the TGI was determined as 31.2 µM with HOP-62 NSCLC; 21.8 µM in the test on SK-MEL-5 melanoma; 9.14 µM with COLO 205 colon; 22.5 µM in the test on IGROV1 ovarian; 23.4 µM in the test on SF-539 CNS; 13.8 µM with M14 melanoma. Besides, the TGI worked out at 28.8 µM with UO-31 renal; 9.2 µM with HL-60(TB) leukemia; 17.9 µM in the test on HCT-116 colon; 18.5 µM in the test with 786-0 renal; 18.3 µM with SNB-19 CNS; 14 µM with MDA-N.
